{
  "source": "patent US11497749B2",
  "about": "“Mitoflavoscins: targeting flavin-containing enzymes eliminates cancer stem cells (CSCS) by inhibiting mitochondrial respiration” (LUNELLA BIOTECH, INC., priority 2017, dated 2022)",
  "key": {"C. elegans": {"tested_on": "C. elegans", "settings": "during response to oxidative stress; cited from earlier work"}, "MCF7 cells [1]": {"tested_on": "MCF7 cells", "experiment": "cells", "from_the_text": "(§1) A number of methods may be used for functional validation, including, for example, metabolic flux analysis, mammosphere assays, viability assays, and antibiotic (anti-bacterial and/or anti-fungal) activity. The inventors determined real-time oxygen consumption rates (OCR) and extracellular acidification rates (ECAR) in MCF7 cells using the Seahorse Extracellular Flux (XF96) analyzer (Seahorse Bioscience, Mass., USA). Briefly, MCF7 cells were maintained in DMEM supplemented with 10% FBS (fetal bovine serum), 2 mM GlutaMAX, and 1% Pen-Strep. 8,000 cells per well were seeded into XF96-well cell culture plates, and incubated overnight at 37° C. in a 5% CO2 humidified atmosphere. The next day, cells were washed in pre-warmed XF assay media (for OCR measurement, XF assay media was supplemented with 10 mM glucose, 1 mM Pyruvate and adjusted at pH 7.4). Cells were then maintained in 175 μL/well of XF assay media at 37° C., in a non-CO2 incubator for 1 hour. During incubation, 25 μL of 80 mM glucose, 9 μM oligomycin, 1M 2-deoxyglucose (for ECAR measurement) and 25 μL of 10 μM oligomycin, 9 μM FCCP, 10 μM rotenone, 10 μM antimycin A (for OCR measurement) in XF assay media was loaded into the injection ports of the XFe-96 sensor cartridge. During the experiment, the instrument injected these inhibitors into the wells at a given time point, while ECAR/OCR was measured continuously. ECAR and OCR measurements were normalized by protein content (Sulphorhodamine B assay). Data sets were analyzed by XFe-96 software, using one-way ANOVA and Student's t-test calculations. All experiments were performed in triplicate.\nIt should be appreciated that numerous methods are known for functional validation, and that persons of skill in the art may select one or more depending on the validation needs (e.g., other assays that measure or approximate mitochondrial function).\n(§2) Given DPI's high potency, inventors assessed its ability to rapidly affect cell metabolism.\nTo assess the reversibility of DPI's effects, MCF7 cells were first subjected to DPI treatment for 24 hours. Then, DPI was removed (“wash-out”) and the cells were cultured for an additional 24 hours, to allow recovery.\nThe inventors also examined the effects of long-term treatment with DPI on cells."}, "MCF7 cells [2]": {"tested_on": "MCF7 cells", "settings": "10 nM, 1 month culture"}, "MCF7 cells [3]": {"tested_on": "MCF7 cells", "settings": "500 nM DPI, 72 hours", "procedure": "Assays were performed according to the manufacturer's protocol."}, "MCF7 cells [4]": {"tested_on": "MCF7 cells", "experiment": "cells", "settings": "Homo sapiens", "procedure": "Cells were grown for 5 days and maintained in a humidified incubator at 37° C. at an atmospheric pressure in 5% (v/v) carbon dioxide/air."}, "MCF7 cells [5]": {"tested_on": "MCF7 cells", "settings": "various concentrations, 1, 3 or 5 days, normalized to vehicle", "procedure": "To confirm that the observed increase in ECAR corresponded to L-lactate production, L-lactate levels were measured directly using the ISCUS^flex Microdialysis Analyser (M Dialysis Inc., MA, USA). Culture media were collected, centrifuged and analysed with the ISCUS^flex Microdialysis Analyzer after treatment of MCF7 cells with various concentrations of DPI for 1, 3 or 5 days. Calibration of the instrument was performed by samples provided by the manufacturer. Then L-lactate levels were measured and normalized to samples taken from MCF7 cells treated with vehicle only."}, "MCF7 cells [6]": {"tested_on": "MCF7 cells", "experiment": "cells", "settings": "Homo sapiens, MCF7, 120 h, read-out: IC-50, reduction of CD44+/CD24- cell population", "experimental": "Inventors examined specific cell surface markers, namely fluorescent antibody probes directed against CD44 and CD24. The CD44+/CD24-cell population represents a CSC-enriched fraction. 1×10^5 MCF7 cells were plated in 6-well plates in complete media supplemented with 10% heat-inactivated FBS. […] Vehicle alone (DMSO) control cells were processed in parallel. Briefly, 30,000-50,000 live cells, as identified by 7-AAD dye staining, were analyzed for CD24/CD44 expression. Inventors used CD24 (IOTest CD24-PE, Beckman Coulter) and CD44 (APC mouse Anti-Human CD44, BD Pharmingen) antibodies for fluorescence activated cell sorting (FACS) analysis, using the BD LSR Fortessa (BD Bioscience). […] One-way ANOVA was used with Bonferroi's multiple comparisons test."}, "hTERT-BJ1 cells": {"tested_on": "hTERT-BJ1 cells", "settings": "five days of incubation, up to 100 nM", "experimental": "(§3) The inventors used a Sulphorhodamine (SRB) assay, which is based on the measurement of cellular protein content. After treatment for five days in 96-well plates, cells were fixed with 10% trichloroacetic acid (TCA) for 1 hour in the cold room, and were dried overnight at room temperature. Then, cells were incubated with SRB for 15 min, washed twice with 1% acetic acid, and air dried for at least 1 hour. Finally, the protein-bound dye was dissolved in a 10 mM Tris, pH 8.8 solution and read using the plate reader at 540-nm."}, "MCF7 cells [7]": {"tested_on": "MCF7 cells", "settings": "24 hours", "procedure": "Inventors hypothesized that possible mechanism by which DPI inhibits CSC propagation is by inducing mitochondrial reactive oxygen species (ROS) production. To test this hypothesis, inventors determined the effects of DPI on mitochondrial ROS production, over the range of 5 to 50 nM. Briefly, production of superoxide by mitochondria was measured by the MitoSOX™ Red mitochondrial superoxide indicator (ThermoFisher Sci., M36008). 3×10^5 MCF7 cells/well were plated in 6-well plates in complete media supplemented with 10% heat-inactivated FBS. The next day, cells were treated with DPI (5, 50 nM) or Rotenone (0.5 μM) for 24 hours. Vehicle alone (DMSO) for control cells were processed in parallel. At least 30,000 events were recorded by FACS using Fortessa (BD Bioscience). Three biological replicates (repeats) were analyzed in independent experiments."}, "MCF7 cells [8]": {"tested_on": "MCF7 cells", "settings": "five days of treatment, concentration as high as 33 nM", "experimental": "as §3"}, "MCF7 cells [9]": {"tested_on": "MCF7 cells", "from_the_text": "as §1, §2"}},
  "note": "Where two headings read alike, the source gives them in different places.",
  "data": [
    {"smiles": "c1ccc2c(c1)[I+]c1ccccc1-2", "note": "[DPI, Diphenyleneiodonium chloride]", "values": [
      {"measurement": "accumulation of lipofuscin (aging-associated marker)", "setting": "C. elegans", "value": "prevents the accumulation of lipofuscin"},
      {"measurement": "effect on OCR", "setting": "MCF7 cells [1]; 2.5 nM, 24-hour treatment", "value": "little or no effect"},
      {"measurement": "reduction of basal respiration", "setting": "MCF7 cells [1]; 5 nM, 24-hour treatment", "value": "~50", "unit": "%"},
      {"measurement": "decrease of basal respiration rate", "setting": "MCF7 cells [1]; 10 nM, 24-hour treatment", "value": "~85", "unit": "%"},
      {"measurement": "reduction in ATP production (ATP-linked respiration)", "setting": "MCF7 cells [1]; 10 nM, 24-hour treatment", "value": "> 90", "unit": "%"},
      {"measurement": "inhibition of mitochondrial respiration after long-term treatment", "setting": "MCF7 cells [1]; 1 month culture with 10, 25 and 50 nM", "value": "near complete inhibition of respiration"},
      {"measurement": "IC50", "setting": "MCF7 cells [1]; Homo sapiens, MCF7, 1 h, read-out: IC-50, inhibition of basal respiration", "value": 50, "unit": "nM"},
      {"measurement": "morphology and density of the cells", "setting": "MCF7 cells [2]", "value": "remains unchanged"},
      {"measurement": "cell death (number of attached cells by DNA content)", "setting": "MCF7 cells [3]", "value": "did not significantly induce any cell death"},
      {"measurement": "reduction of ATP levels", "setting": "MCF7 cells [3]", "value": "> 80", "unit": "%"},
      {"measurement": "IC50", "setting": "MCF7 cells [4]; MCF7, 120 h, read-out: IC-50, CSC propagation (mammosphere formation)", "value": 3.23, "unit": "nM"},
      {"measurement": "inhibition at 0.005 µM", "setting": "MCF7 cells [4]; MCF7, read-out: inhibition of mammosphere formation", "value": "> 50", "unit": "%"},
      {"measurement": "L-lactate production", "setting": "MCF7 cells [5]", "value": "nearly doubling the amount of lactate produced"},
      {"measurement": "IC50", "setting": "MCF7 cells [6]", "value": 10, "unit": "nM"},
      {"measurement": "toxic effects / cell viability in normal fibroblasts (hTERT-BJ1)", "setting": "hTERT-BJ1 cells", "value": "little or no toxic effects"},
      {"measurement": "mitochondrial ROS production", "setting": "MCF7 cells [7]; 5 nM, relative to vehicle", "value": "failed to induce any detectable mitochondrial ROS production"},
      {"measurement": "mitochondrial ROS production", "setting": "MCF7 cells [7]; 50 nM, versus positive control Rotenone", "value": "induced the same amount of mitochondrial ROS as 500 nM Rotenone"},
      {"measurement": "toxicity / cell viability in MCF7 cells", "setting": "MCF7 cells [8]", "value": "little or no toxicity"},
      {"measurement": "effect on ECAR", "setting": "MCF7 cells [9]; 2.5 nM, 24 hours of treatment", "value": "little or no effect"},
      {"measurement": "increase of glycolysis", "setting": "MCF7 cells [9]; 10 nM, 24 hours of treatment", "value": "~2", "unit": "fold"},
      {"measurement": "increase of glycolysis", "setting": "MCF7 cells [9]; one-hour treatment, 5 to 100 nM", "value": "effectively doubled"}
    ]}
  ]
}
